{
  "source": "patent US10112933B2",
  "about": "“Methods and compositions for treatment of fibrosis” (Baylor College of Medicine, priority 2013, dated 2018)",
  "key": {"murine lung fibroblasts": {"system": "murine lung fibroblasts", "assay": "Myofibroblast differentiation of lung fibroblasts", "type": "cell-based", "experimental": "(§1) The role of STAT3 in EMT and myofibroblast differentiation was determined by using […]-9 in tissue culture experiments with alveolar epithelial cells (AEC; MLE-12 and primary AEC) and murine lung fibroblasts. […] […]-9 prevented TGF-beta and IL-6/sIL-6R-alpha induced EMT of AEC assessed by Col1a, alpha-SMA, Twist, and Snail mRNA levels and reduced myofibroblast differentiation as assessed by Col1a and alpha-SMA mRNA levels."}, "skin fibrosis": {"system": "skin fibrosis", "assay": "Subcutaneous bleomycin mouse model of skin fibrosis", "type": "in vivo", "conditions": "intraperitoneal treatment days 14-28 of the 4 week model", "experimental": "FIG. 20 illustrates an exemplary study design using a subcutaneous (SQ) bleomycin model for skin fibrosis. In a basic model, bleomycin is administered to wild type mice (C57/Bl6) via subcutaneous injection 5 days a week for a total of 4 weeks. PBS is used as a control for the bleomycin. Fibrosis is assessed in the biopsied skin on day 28. Fibrosis is assessed using histology (hematoxylin and eosin stain), where the dermal thickness is quantified as the average linear distance from the dermis-epidermis junction to the subQ muscle layer. Masson's trichrome staining is also performed to stain collagen blue. Immunohistochemistry is performed for alpha-smooth muscle actin, the marker of the myofibroblasts (cell that makes collagen during the process of fibrosis). Future endpoints are assessed including collagen content. To illustrate that STAT3 inhibitor is a useful therapy at least for dermal fibrosis, an example of a STAT3 inhibitor (C188-9) was given via the intraperitoneal route daily, starting in week 3 of the bleomycin model. DMSO was used as a control for the STAT3 inhibitor."}, "[1]": {"system": "alveolar epithelial cells (MLE-12 and primary AEC)", "assay": "TGF-beta and IL-6/sIL-6R-alpha induced EMT of alveolar epithelial cells", "type": "cell-based", "experimental": "as §1"}},
  "data": [
    {"smiles": "COc1ccc(S(=O)(=O)Nc2cc(-c3c(O)ccc4ccccc34)c(O)c3ccccc23)cc1", "note": "[C188-9, N-(1′,2-dihydroxy-1,2′-binaphthalen-4′-yl)-4-methoxybenzenesulfonamide]", "values": [
      {"measurement": "myofibroblast differentiation (Col1a and alpha-SMA mRNA levels)", "setting": "murine lung fibroblasts", "result": "reduced"},
      {"measurement": "bleomycin-induced increase of dermal fibrotic gene expression (Acta2, Col1a1, Col1a2 transcripts), RT-PCR", "setting": "skin fibrosis", "result": "blunted"},
      {"measurement": "TGF-beta and IL-6/sIL-6R-alpha induced EMT of AEC (Col1a, alpha-SMA, Twist, Snail mRNA levels)", "setting": "[1]", "result": "prevented"}
    ]}
  ]
}
